From article PMC12374861, “Synthetic Peptides Suppress Nervous Necrosis Virus Absorption and Improve Survival Rates in European Sea Bass” (Marine Biotechnology (New York, N.y.), 2025)
Ends that are not written are not given here.

Legend:
E-11 cells = test: MTT cytotoxicity test on E-11 cells; type: cell-based; details: 24 h at 25 °C, mean of n = 3, control = 100.0
Procedure: Synthetic peptides cytotoxicity on E − 11 cells was assessed using the MTT (Sigma) test with serial peptide dilutions (1000–4 µg/mL in L − 15 medium; n = 3; 24 h at 25 °C) as elsewhere (Cervera et al. [2024c]). Absorbance was measured at 570 nm (BMG Labtech); blanks lacked cells. Cell viability was calculated as the OD ratio of treated to untreated cells × 100, normalized at 690 nm.
Supplementary data S4: Cell viability (%) of E-11 cells after incubation with the synthetic peptides for 24 h. Data represent the mean ± SEM (n=3).

SJNNV = type: cell-based, striped jack nervous necrosis virus (strain SJNag97); details: virus (MOI 0.01) incubated with 500 μg/mL peptide for 15 min at 25 °C, titrated in E-11 cells; control virus + PBS; representative of two independent assays; Fig. 2B
Procedure: (§1) Parental RGNNV (strain It/411/96), SJNNV (strain SJNag97), and reassortant isolates (RGNNV/SJNNV, 367.2.2005; SJNNV/RGNNV, 389/I96) were used. Viruses were propagated in E − 11 cells cultured in L-15 Leibovitz medium (BioWest) supplemented with 5% FBS, 2 mM L-glutamine, and 100 IU/mL penicillin/streptomycin (Thermo Fisher Scientific) at 25 °C. Infected monolayers were incubated at 25 °C until extensive cytopathic effect (CPE) developed. Supernatants were then harvested, centrifuged, and titrated in triplicate using the end-point dilution method, expressed as TCID₅₀/mL (Reed and Müench [1938]).
(§2) For in vitro antiviral assays, viral cultures (MOI 0.01) from parental and reassortant strains were incubated with peptides (single or combined) using a non-lethal concentration previously tested (500 μg/mL; León et al. [2020]), for 15 min at 25 °C with gentle agitation. Controls were virus samples incubated with PBS (100% viral activity). Treated samples were titrated as previously. After medium removal, cells were exposed to ten-fold viral dilutions in 2% FBS. CPE was monitored daily for 10 days, and viral titres were calculated as TCID₅₀/mL (Reed and Müench [1938]) and expressed as viral titre or percent inhibition relative to controls.
Fig. 2 Designed peptides, single or combined, reduce the NNV absorption in vitro. NNV parental or reassortant genotypes were incubated with 500 μg/mL of the synthetic peptides for 15 min. Then, the viruses were titrated in the E − 11 cell line. Control samples consisted on virus incubated with the same amount of phosphate buffer saline. (A) Viral titer (TCID50/mL) and (B) % of virus inhibition with respect to the controls are represented. Data are representative of two independent assays. […] Each bar was matched to a substance by its colour and by the order of the legend.

RGNNV [1] = test: RGNNV in vivo bath challenge of European sea bass with peptide injection after infection; parameters: species or system European sea bass (Dicentrarchus labrax); details: for Clinical signs of VER disease, severity score: four-rank scale 1-4, sea bass, RGNNV bath challenge, 1 µg peptide/g i.m., Fig. 4B; for Relative percent survival (RPS): juvenile sea bass, bath infection 3.16 × 10^4 TCID₅₀ RGNNV/mL for 2 h, then intramuscular injection 1 µg peptide/g, 23 dpi, infected PBS group 63.6% survival; for RGNNV rdrp gene expression in the brain / RGNNV cp gene expression in the brain: qPCR relative to ef1a, 2 dpi, n = 6, 1 µg peptide/g i.m. after RGNNV bath challenge; for RGNNV rdrp gene expression in the brain: Fig. 5B; for RGNNV cp gene expression in the brain: Fig. 5A
Procedure: RGNNV In vivo Challenge of European Sea Bass
A total of 375 sea bass were randomly assigned to eight experimental groups (in duplicate) and acclimated for 15 days. Seven groups were infected by immersion (10 L; 3.16 × 10^4 TCID₅₀ RGNNV/mL; 2 h), while a mock-infected control received conditioned medium. […] Combinations were selected according to the results obtained in the competitive in vitro assay against RGNNV (see below). Disease signs and mortalities were monitored daily for 23 days post-infection (dpi) using a four-rank scale (Valero et al. [2021a]). Fish (n = 6/group/time-point) were sampled at 2 and 23 dpi, euthanized with clove oil, bled, and weighed. Brain, NNV target tissue, and head-kidney, major hematopoietic tissue in fish, were dissected, frozen in TRIzol (Life Technologies), and stored at − 80 °C.
For viral load analysis, total RNA was extracted from sea bass brain and head-kidney using TRIzol (Life Technologies) and from E − 11 cells using the GenJET RNA Purification Kit (Thermo Fisher Scientific), following manufacturer protocols. One microgram of RNA was DNAse I-treated (1 U/µL; Thermo Scientific), and cDNA was synthesized using Superscript IV Reverse Transcriptase (Invitrogen). qPCR was performed on a QuantStudio 5 Flex (Applied Biosystems) to quantify cp, rdrp and mx genes using PowerUp SYBR Green reagents (Applied Biosystems). The protocol included a 95 °C hold, then 40 cycles (95 °C; 15 s) and 60 °C for 1 min. Relative expression was calculated using the 2^⁻ΔCt method (Livak and Schmittgen [2001]), with ef1a as the endogenous control. Primers (Supplementary Data S2) were validated by melting curve analysis and negative controls.
Fish mortality was analysed using Kaplan–Meier survival curves with log-rank (Mantel–Cox) tests for significance. Relative gene expression was evaluated by one-way ANOVA (p ≤ 0.05) followed by Tukey’s test. Viral kinetics were compared between P4-treated and untreated groups using Student’s t-test (p ≤ 0.05) at specific time points. All analyses were performed with IBM SPSS Statistics 20.
Fig. 4 Therapeutic administration of synthetic peptides improves survival and symptomatology in […] (RGNNV)-infected European sea bass juveniles. […] A mock-infected group was treated twice with only PBS. (A) Kaplan–Meier survival curves; (B) Heat-map representing the cumulated number of fish showing clinical signs of VER disease attending to their severity: (1) changes of the color of the skin, slower rhythm of swimming and/or slower reaction to external stimuli as feeding; (2) alterations in the swimming balance and/or erratic swimming spasms; (3) continuous erratic swimming; and (4) complete incapacity to keep balance, swim and/or move without external stimuli. VER, viral encephalopathy and retinopathy
Fig. 5 Therapeutic administration of synthetic peptides decreased viral loads in the brain without additional mx gene regulation in the sea bass juveniles head-kidney infected with red-spotted grouper nervous necrosis virus (RGNNV). […] A mock-infected group was treated twice with only PBS. (A–C) Transcription levels of RGNNV cp (A) and rdrp (B) genes in the brain and (C) mx gene in the head-kidney. Data represent the relative gene expression mean ± SEM (n = 6). Different letters indicate significant differences among groups according to the ANOVA (p < 0.05)

RGNNV/SJNNV reassortant = test: In vitro antiviral (competition) assay: virus incubated with peptide, then titrated in E-11 cells; type: cell-based, RGNNV/SJNNV reassortant (367.2.2005); details: virus (MOI 0.01) incubated with 500 μg/mL peptide for 15 min at 25 °C, control virus + PBS, representative of two independent assays, Fig. 2B
Procedure: as §1, §2
Fig. 2 Designed peptides, single or combined, reduce the NNV absorption in vitro. […]

RGNNV [2] = test: RGNNV adsorption efficiency, progeny production and replication kinetics in P4 pre-treated E-11 cells; type: cell-based, red-spotted grouper nervous necrosis virus
Procedure: Based on in vivo results (see below), the P4 effect on RGNNV replication was further assessed by analysing viral adsorption efficiency and progeny production, as previously (Valero et al. [2021b]) with slight modifications. Intracellular and extracellular viral kinetics were examined using semi-confluent E − 11 monolayers in 12-well plates (Sarstedt) treated with P4 (500 µg/mL) for 24 h; untreated cells served as controls. After treatment, supernatants were removed, cells washed thrice, and infected with RGNNV (MOI 0.01) for 45 min. Residual inoculum was collected, and monolayers washed and overlaid with L-15 for incubation at 25 °C with daily CPE monitoring. Supernatants were collected at 8, 12, 24, and 48 h post-infection (hpi); cells were washed, scraped and stored. For extracellular kinetics, supernatants were collected until 168 hpi. All samples were clarified by centrifugation (2000 × g, 10 min). Titrations were performed for: (i) total inoculated virus (TIV), (ii) non-attached virus (NAV), and (iii) viral progeny (VP). Assays were conducted in triplicate.
Formulas used for impact of synthetic peptides on RGNNV replication in vitro assay are the following: • AbsorbedvirusAV=TIV-NAV • AdsorptionefficacyAE=AV/TIV×100 • Productionrate(PR)=VP/AV • Relativeratioofproduction(RRP)=PRP4+RGNNV/PRRGNNV
Fig. 3 The pre-treatment with P4 synthetic peptide partially disrupts the replication of RGNNV in vitro. (A) Intracellular replication kinetics; (B) Viral production in cell supernatants; and (C, D) Genome synthesis in cell lysates by means of transcriptional levels of rdrp (C) and cp (D) genes. Monolayers of E-11 were incubated with 500 µg/mL of P4 or untreated for 24 h and then infected with […] nervous necrosis virus (RGNNV) (n = 3). Supernatants and cell lysates were collected at 8, 12, 24, 48 h post-infection (hpi). Additionally, supernatants were sampled at 168 hpi for extracellular replication kinetic analysis. Infectious titers were determined by the end-point titration method (Reed and Müench [1938]) and expressed as mean Log10 TCID50/mL ± standard error of the mean (SEM). Relative expression was presented as the mean ± SEM (n = 3). Asterisks indicate significant differences among groups according to the Student-t test (p < 0.05)

Substance | Viability (%) of E-11 cells, mean (E-11 cells; peptide 0.00411 mg/mL) | Viability (%) of E-11 cells, mean (E-11 cells; peptide 0.01234 mg/mL) | Viability (%) of E-11 cells, mean (E-11 cells; peptide 0.03704 mg/mL) | Viability (%) of E-11 cells, mean (E-11 cells; peptide 0.11111 mg/mL) | Viability (%) of E-11 cells, mean (E-11 cells; peptide 0.33333 mg/mL) | Viability (%) of E-11 cells, mean (E-11 cells; peptide 1.00000 mg/mL) | % of virus inhibition with respect to the controls, SJNNV (SJNNV) | Clinical signs of VER disease, severity score (RGNNV [1]) | Relative percent survival (RPS) (RGNNV [1]) | RGNNV rdrp gene expression in the brain (RGNNV [1]) | RGNNV cp gene expression in the brain (RGNNV [1]) | % of virus inhibition with respect to the controls, RGNNV/SJNNV (RGNNV/SJNNV reassortant) | AE, adsorption efficiency (RGNNV [2]; AE = AV/TIV × 100, E-11 cells pre-treated with P4 500 µg/mL 24 h, untreated cells 99.05%) | Intracellular viral replication titre at 48 h post-infection (RGNNV [2]; E-11 cells pre-treated with P4 500 µg/mL 24 h, RGNNV, cell lysates, 48 hpi, untreated cells 2.40 × 10⁶, n = 3, Fig. 3A) | Viral release in cell supernatants at 48 h post-infection (RGNNV [2]; E-11 cells pre-treated with P4 500 µg/mL 24 h, RGNNV, supernatants, 48 hpi, untreated cells 6.77 × 10^4, n = 3, Fig. 3B) | Viral progeny (VP) (RGNNV [2]; E-11 cells pre-treated with P4 500 µg/mL 24 h, then RGNNV MOI 0.01, untreated cells 1.40 × 10^8) | Attached virus (AV), Log ± SEM (RGNNV [2]; E-11 cells pre-treated with P4 500 µg/mL for 24 h, then RGNNV MOI 0.01 for 45 min, triplicate) | Attached virus (AV) (RGNNV [2]; E-11 cells pre-treated with P4 500 µg/mL for 24 h, washed, infected with RGNNV MOI 0.01 for 45 min, AV = TIV − NAV, triplicate, untreated cells 9.20 × 10^5 in Table 2) | PR, production rate (RGNNV [2]; PR = VP/AV, P4 pre-treated E-11 cells, untreated cells 151.57) | RRP, relative ratio of production (RGNNV [2]; RRP = PR(P4+RGNNV)/PR(RGNNV))
TTKAANPQPRRRANNRRRS-NH2 [Peptide P1] | 123.5% | 129.9% | 100.1% | 96.6% | 109.3% | 91.5% | 90% |  |  |  |  |  |  |  |  |  |  |  |  | 
SVRLSVPSLETPEETTA-NH2 [Peptide P7] | 149.6% | 125.7% | 138.9% | 116.6% | 119.8% | 131.6% | 90% | ≤ 4 | 68.8% | effectively blocked |  |  |  |  |  |  |  |  |  | 
ALQATRGAVVAKWW-NH2 [Peptide P5] | 126.6% | 116.7% | 116.4% | 122.7% | 104.3% | 115.8% |  |  |  |  |  |  |  |  |  |  |  |  |  | 
LLWTSSGKEQR-NH2 [Peptide P6] | 157.5% | 139.2% | 138.9% | 152.9% | 146.5% | 128.1% | 90% |  |  |  |  |  |  |  |  |  |  |  |  | 
PRLGHAARIFQRYA-NH2 [Peptide P3] | 89.4% | 93.2% | 96.3% | 89.8% | 90.9% | 101.7% | 90% |  | 62.5% | lowered | lowered | 96.84% |  |  |  |  |  |  |  | 
PDPTDNDHTFD-NH2 [Peptide P4] | 87.4% | 102.6% | 92.4% | 110.6% | 100.5% | 106.4% |  | 1 | 81.3% | lowered | lowered |  | 98.99% | 1.64 × 10^4 TCID₅₀/mL | 3.36 × 10^3 TCID₅₀/mL | 2.46 × 10^7 TCID50/mL | 5.96 ± 0.005 | 9.21 × 10^5 TCID50/mL | 26.76 | 0.18
